Data reported in US20260035367A1 (Celgene Corporation, priority 2021, published 2026).
Where two headings read alike, the source gives them in different places.

Key:
[1] = target: T1, Recombinant human PKC-delta (His-tagged 345-676) (Homo sapiens, UniProt Q05655); assay: PKC-delta inhibition assay (HTRF KinEASE kit); format: biochemical; conditions: ratio, PKC-theta vs PKC-delta HTRF; for PKC-theta/PKC-delta selectivity (binned): binned A to G
T1 construct: PKC-delta (His-tagged 345-676); His

[2] = system: IL-2 secretion by human effector memory T cells (TEM); assay: Effector memory T cells IL-2 release assay (CD3/CD28 stimulation, HTRF IL-2 detection); format: cell-based; conditions: Homo sapiens, T-cell, 24 h
How it was run: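 IL-2 released into the supernatant was quantified by HTRF after 24 h at 37 °C in 5% CO2. The cells were stimulated primary human TEM from donor buffy coats, treated with a 10-point semi-log compound series (0.1% DMSO final, triplicates).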

[3] = target: T2, Recombinant human PKC-theta (His-tagged 362-706) (Homo sapiens, UniProt Q04759); assay: PKC-theta inhibition assay (HTRF KinEASE kit); format: biochemical; conditions: ATP 6.5 μM, STK substrate 525 nM
T2 construct: Recombinant human PKC-theta (His-tagged 362-706); His
T2 sequence (Q04759 362-706): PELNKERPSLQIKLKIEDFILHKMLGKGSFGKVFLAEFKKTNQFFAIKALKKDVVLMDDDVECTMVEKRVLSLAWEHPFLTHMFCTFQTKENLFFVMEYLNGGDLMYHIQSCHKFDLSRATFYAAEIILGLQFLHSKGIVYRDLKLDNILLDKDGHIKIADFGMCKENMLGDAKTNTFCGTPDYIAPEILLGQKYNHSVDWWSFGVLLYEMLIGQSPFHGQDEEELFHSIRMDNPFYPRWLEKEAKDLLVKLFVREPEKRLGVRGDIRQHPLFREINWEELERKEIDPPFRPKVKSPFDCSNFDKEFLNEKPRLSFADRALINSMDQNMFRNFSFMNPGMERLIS
How it was run: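 IC50 values were from 4-parameter logistic fits of percent inhibition, based on acceptor/donor HTRF ratios over 10 semi-log compound doses. Kinase reactions, started with substrate plus ATP, ran 30 min at 25 °C in buffer supplemented with 10 mM MgCl2, 1 mM DTT and 0.1% Tween 20; detection lasted 2 h.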

[4] = binned A to G, read-out: PKC-theta IL2 pIC50 (binned) (converted)
[5] = read-out: PKC-theta IL2 pIC50 (converted)
[6] = binned A to H, read-out: PKC-theta HTRF pIC50 (binned) (converted)
[7] = read-out: PKC-theta HTRF pIC50 (converted)

T1 sequence (Q05655 345-676): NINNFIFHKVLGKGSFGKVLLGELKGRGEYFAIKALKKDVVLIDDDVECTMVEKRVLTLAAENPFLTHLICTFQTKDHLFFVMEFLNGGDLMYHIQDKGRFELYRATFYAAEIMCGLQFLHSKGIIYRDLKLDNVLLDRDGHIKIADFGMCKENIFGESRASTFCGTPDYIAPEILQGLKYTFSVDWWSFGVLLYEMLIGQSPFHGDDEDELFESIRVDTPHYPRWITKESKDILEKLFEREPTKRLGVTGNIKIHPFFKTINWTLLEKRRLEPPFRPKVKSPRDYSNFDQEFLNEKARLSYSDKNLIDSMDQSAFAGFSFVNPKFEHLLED

Row | SMILES | PKC-theta/PKC-delta selectivity [1] | PKC-theta/PKC-delta selectivity (binned) [1] | IC50 [2, 4] | IC50 [2, 5] | IC50 [3, 6] | IC50 [3, 7]
1 | C[C@@H]1NCCN(c2cc(C(F)(F)F)cc(-c3ccnc4c3C(C)(C)C(=O)N4)n2)[C@@H]1C [Example 169] | 16 | D (a ratio of between 10 and 20) | 31.6 to 100 nM | 100 nM | 3.16 to 10 nM | 7.94 nM
2 | CC(F)(F)c1cc(-c2c(F)cnc3c2C(C)(C)C(=O)N3)nc(N2CCNCC2)c1 [Example 174] | 10 | D (a ratio of between 10 and 20) | 100 to 316 nM | 316 nM | 31.6 to 100 nM | 31.6 nM
3 | CC1(C)C(=O)Nc2nccc(-c3cc(C(F)(F)F)cc(N4CCCNCC4)n3)c21 [Example 175] | 21 | C (a ratio of between 20 and 30) | 31.6 to 100 nM | 63.1 nM | 3.16 to 10 nM | 5.01 nM
4 | C[C@@H]1CN[C@@H](C)CN1c1cc(C(F)(F)F)cc(-c2ccnc3c2C(C)(C)C(=O)N3)n1 [Example 177] | 24 | C (a ratio of between 20 and 30) | 31.6 to 100 nM | 63.1 nM | 3.16 to 10 nM | 6.31 nM
5 | C[C@@H]1CN(c2cc(C(F)(F)F)cc(-c3ccnc4c3C(C)(C)C(=O)N4)n2)[C@H](C)CN1 [Example 178] | 20 | D (a ratio of between 10 and 20) | 31.6 to 100 nM | 63.1 nM | 1 to 3.16 nM | 3.16 nM
6 | C[C@@H]1CNC[C@H](C)N1c1cc(C(F)(F)F)cc(-c2ccnc3c2C(C)(C)C(=O)N3)n1 [Example 179] | 20 | D (a ratio of between 10 and 20) | 100 to 316 nM | 200 nM | 3.16 to 10 nM | 6.31 nM
7 | C[C@@H]1CNC[C@@H](C)N1c1cc(C(F)(F)F)cc(-c2ccnc3c2C(C)(C)C(=O)N3)n1 [Example 180] | 28 | C (a ratio of between 20 and 30) | 316 to 1000 nM | 631 nM | 1 to 3.16 nM | 2 nM
8 | C[C@H]1CNCCN(c2cc(C(F)(F)F)cc(-c3ccnc4c3C(C)(C)C(=O)N4)n2)C1 [Example 181] | 12 | D (a ratio of between 10 and 20) | 100 to 316 nM | 158 nM | 10 to 31.6 nM | 12.6 nM
9 | C[C@@H]1CNCCN(c2cc(C(F)(F)F)cc(-c3ccnc4c3C(C)(C)C(=O)N4)n2)C1 [Example 182] | 25 | C (a ratio of between 20 and 30) | 100 to 316 nM | 158 nM | 3.16 to 10 nM | 7.94 nM
10 | C[C@H]1CCN(c2cc(C(F)(F)F)cc(-c3ccnc4c3C(C)(C)C(=O)N4)n2)CCN1 [Example 183] | 25 | C (a ratio of between 20 and 30) | 100 to 316 nM | 126 nM | 3.16 to 10 nM | 6.31 nM
11 | C[C@@H]1CCN(c2cc(C(F)(F)F)cc(-c3ccnc4c3C(C)(C)C(=O)N4)n2)CCN1 [Example 184] | 20 | C (a ratio of between 20 and 30) | 100 to 316 nM | 251 nM | 10 to 31.6 nM | 10 nM
12 | C[C@H]1CN(c2cc(C(F)(F)F)cc(-c3ccnc4c3C(C)(C)C(=O)N4)n2)CCCN1 [Example 185] | 27 | C (a ratio of between 20 and 30) | 31.6 to 100 nM | 39.8 nM | 3.16 to 10 nM | 5.01 nM
13 | C[C@@H]1CN(c2cc(C(F)(F)F)cc(-c3ccnc4c3C(C)(C)C(=O)N4)n2)CCCN1 [Example 186] | 22 | C (a ratio of between 20 and 30) | 31.6 to 100 nM | 50.1 nM | 3.16 to 10 nM | 6.31 nM
14 | C[C@H]1CCNCCN1c1cc(C(F)(F)F)cc(-c2ccnc3c2C(C)(C)C(=O)N3)n1 [Example 187] | 28 | C (a ratio of between 20 and 30) | 31.6 to 100 nM | 100 nM | 3.16 to 10 nM | 5.01 nM
15 | C[C@@H]1CCNCCN1c1cc(C(F)(F)F)cc(-c2ccnc3c2C(C)(C)C(=O)N3)n1 [Example 188] | 28 | C (a ratio of between 20 and 30) | 31.6 to 100 nM | 100 nM | 3.16 to 10 nM | 6.31 nM
16 | C[C@H]1CNCCCN1c1cc(C(F)(F)F)cc(-c2ccnc3c2C(C)(C)C(=O)N3)n1 [Example 189] | 16 | D (a ratio of between 10 and 20) | 100 to 316 nM | 251 nM | 3.16 to 10 nM | 5.01 nM
17 | C[C@@H]1CNCCCN1c1cc(C(F)(F)F)cc(-c2ccnc3c2C(C)(C)C(=O)N3)n1 [Example 190] | 32 | B (a ratio of between 30 and 50) | 31.6 to 100 nM | 79.4 nM | 3.16 to 10 nM | 3.16 nM
18 | CC1(C)C(=O)Nc2nccc(-c3cc(C(F)(F)F)cc(N4CCN[C@H]5COC[C@H]54)n3)c21 [Example 192] | 31 | B (a ratio of between 30 and 50) | 100 to 316 nM | 158 nM | 3.16 to 10 nM | 3.98 nM
19 | CC(F)(F)c1cc(-c2ccnc3c2C(C)(C)C(=O)N3)nc(N2CCCNCC2)c1 [Example 203] | 14 | D (a ratio of between 10 and 20) | 31.6 to 100 nM | 100 nM | 3.16 to 10 nM | 6.31 nM
20 | C[C@@H]1CN(c2cc(C(C)(F)F)cc(-c3ccnc4c3C(C)(C)C(=O)N4)n2)CCCN1 [Example 204] | 24 | C (a ratio of between 20 and 30) | 100 to 316 nM | 126 nM | 3.16 to 10 nM | 6.31 nM
21 | CC1(C)C(=O)Nc2nccc(-c3nc(N4CCNCC4)c(F)cc3Cl)c21 [Example 207] | 5 | F (a ratio of between 1 and 5) | > 1000 nM | 2000 nM | 100 to 316 nM | 251 nM
22 | C[C@H]1CN(c2cc(Cl)cc(-c3ccnc4c3C(C)(O)C(=O)N4)n2)CCN1 (stereo partly drawn) [Example 208] | 12 | D (a ratio of between 10 and 20) | 10 to 31.6 nM | 20 nM | 1 to 3.16 nM | 2 nM
